Results reported in publication PMC12413947, “Caffeine Acts as an Agonist of Siglec-6, Inhibits MRGPRX2-Triggered Mast Cell Degranulation and Anaphylactoid Reactions” (Mediators of Inflammation, 2025).

Molecular target: T1, Siglec-6 (Homo sapiens, UniProt O43699)
T1 construct: gene SIGLEC6; captured on CM5 chip
Assay: surface plasmon resonance (Biacore T200)
Format: binding
From the text: surface plasmon resonance (Biacore T200) on Siglec-6 | The binding affinity between caffeine and Siglec-6 protein is with a calculated KD of […]

T1 sequence (O43699 27-347 limits assumed): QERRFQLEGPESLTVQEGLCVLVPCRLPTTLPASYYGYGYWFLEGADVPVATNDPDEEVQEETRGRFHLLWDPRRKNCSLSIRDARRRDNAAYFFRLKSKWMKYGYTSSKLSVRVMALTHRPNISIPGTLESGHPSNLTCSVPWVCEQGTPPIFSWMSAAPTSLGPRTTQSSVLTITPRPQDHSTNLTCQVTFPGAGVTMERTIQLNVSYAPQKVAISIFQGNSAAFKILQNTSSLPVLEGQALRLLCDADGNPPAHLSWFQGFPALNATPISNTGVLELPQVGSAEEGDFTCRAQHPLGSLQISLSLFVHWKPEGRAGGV

With `Cn1c(=O)c2c(ncn2C)n(C)c1=O` [caffeine] the Kd was 176 nM.
